Earlier results on 1 compound are cited in patent US20140255503A1, “PHARMACEUTICAL COMPOSITION OF OMEPRAZOLE” (LABORATORIOS DEL DR. ESTEVE, S.A., priority 2011, published 2014).

Test in data set [1]: not given
The source holds these as a separate data set.

For `COc1ccc2[nH]c([S+]([O-])Cc3ncc(C)c(OC)c3C)nc2c1` (stereo not shown) [Omeprazole, 5-methoxy-2-(4-methoxy-3,5-dimethylpyridin-2-ylmethylsulfinyl)-1H-benzimidazole], under “acetone”, the Solubility in acetone result was “slightly soluble”. Besides, where the note is “ethanol”, the Solubility in ethanol result is “freely soluble”. Also, the Solubility in isopropanol result (isopropanol) is “slightly soluble”. Also, where the note is “methanol”, the Solubility in methanol entry is “freely soluble”. Further, the Solubility in water result (water) was “very slightly soluble”. Also, in data set [1] (acid media), the “Stability in acid media” value is recorded as “rapidly degraded”. Also, the “Stability under alkaline conditions” value in data set [1] (alkaline conditions) is reported as “acceptable stability”.
